# Literature values as cited in PubChem BioAssay AID1259410 (Chemical Carcinogenesis Research Information System (CCRIS), 2018).
# System: rodent tumor promotion studies, tumor incidence
# Experiment: CCRIS tumor promotion studies
# [1] = Carcinogen: 7,12-DIMETHYLBENZ(A)ANTHRACENE, Doses [Carcinogen]: TOP, Route [Carcinogen]: DERMAL, Route [Promoter]: DERMAL, Species: MOUSE, Strain/Sex: MALE,FEMALE
compound,measurement,setting,value
CCCCCCC(=O)C/C=C/CCCCCCCC(=O)OC,outcome,"Carcinogen: 4-NITROQUINOLINE-1-OXIDE, Doses [Carcinogen]: IG, Doses [Promoter]: IN DIET, Route [Carcinogen]: GAVAGE, Route [Promoter]: ORAL, Species: MOUSE, Strain/Sex: MALE,FEMALE",forestomach
same,outcome,[1],integumentary system (skin)
CC(CCC(=O)NCCS(=O)(=O)O)[C@H]1CC[C@H]2[C@@H]3CC[C@@H]4C[C@H](O)CC[C@]4(C)[C@H]3C[C@H](O)[C@]12C (some centres not stated),outcome,"Doses [Carcinogen]: IR, Route [Carcinogen]: RECTAL, Route [Promoter]: RECTAL, Species: RAT, Strain/Sex: MALE,FEMALE",colon
CC1=C(/C=C/C(C)=C/C=C/C(C)=C/C=C/C=C(C)/C=C/C=C(C)/C=C/C2=C(C)CCCC2(C)C)C(C)(C)CCC1,outcome,"Carcinogen: 4-(N-METHYL-N-NITROSAMINO)-1-(3-PYRIDYL)-1-BUTANONE (NNK) [64091-91-4], Doses [Carcinogen]: 3.5 MG ON D 7, Doses [Promoter]: 0, 120, 600, 3000 PPM FROM START TO END AT 26 WKS (STUDY DURATION: 26 WKS), Doses [Promoter]: 0, 120, 600, 3000 PPM FROM START TO END AT 26 WKS (STUDY DURATION: 26 WKS), Route [Carcinogen]: IP INJECTION, Route [Promoter]: DIET, Species: MOUSE, Strain/Sex: A/J/MALE",lung - negative
same,outcome,"Carcinogen: 4-(N-METHYL-N-NITROSAMINO)-1-(3-PYRIDYL)-1-BUTANONE (NNK) [64091-91-4], Doses [Carcinogen]: 3.5 MG ON D 15 (STUDY DURATION: 28 WKS), Doses [Promoter]: 600 PPM WKS 1 TO 3, WKS 6 TO 28 OR WKS 1 TO 28 (STUDY DURATION: 28 WKS), Route [Carcinogen]: IP INJECTION, Route [Promoter]: DIET, Species: MOUSE, Strain/Sex: A/J/MALE",lung - negative
same,outcome,"Carcinogen: 4-(N-METHYL-N-NITROSAMINO)-1-(3-PYRIDYL)-1-BUTANONE (NNK) [64091-91-4], Doses [Carcinogen]: 5 MG ON D 28, Doses [Promoter]: 600 PPM FROM START TO WK 5, WK 3 TO 8, WKS 8 TO 24 OR FOR 24 WKS (STUDY DURATION: 24 WKS), Route [Carcinogen]: IP INJECTION, Route [Promoter]: DIET, Species: MOUSE, Strain/Sex: A/J/MALE",lung - negative
Cc1cccc(O)c1,outcome,"Carcinogen: 7,12-DIMETHYLBENZ(A)ANTHRACENE, Doses [Carcinogen]: TOP, Route [Carcinogen]: DERMAL, Route [Promoter]: DERMAL, Species: MOUSE, Strain/Sex: FEMALE",integumentary system (skin)
CCCCCC1(CCCCCC(=O)OC2C(C)C3(O)C(C=C(CO)CC4(O)C(=O)C(C)=CC43)C3C(C)(C)C23OC(C)=O)OCC(C)(C)N1[O] (configuration not stated),outcome,"Carcinogen: 7,12-DIMETHYLBENZ[A]ANTHRACENE, 57-97-6, Doses [Carcinogen]: 100 NMOL ONCE, Doses [Promoter]: 0, 20 NMOL 2/WK FOR 24 WK BEGINNING 1 WK POST CARCINOGEN DOSE (STUDY DURATION: 25 WK), Route [Carcinogen]: DERMAL, Route [Promoter]: DERMAL, Species: MOUSE, Strain/Sex: NMRI/FEMALE",skin: tumor
CC(=O)O[C@@]12[C@H](OC(=O)/C=C(C)/C=C/C=C(C)/C=C/C3=C(C)CCCC3(C)C)[C@@H](C)[C@@]3(O)[C@@H](C=C(CO)C[C@]4(O)C(=O)C(C)=C[C@@H]34)[C@@H]1C2(C)C,outcome,"Carcinogen: 7,12-DIMETHYLBENZ[A]ANTHRACENE, 57-97-6, Doses [Carcinogen]: 10 NMOL ONCE, Doses [Promoter]: 0, 2.5, 5 UG IN 0.2 ML ACETONE 2/WK FOR 21 WK BEGINNING 1 WK POST CARCINOGEN (STUDY DURATION: 21 WK), Doses [Promoter]: 0, 2.5, 5 UG IN 0.2 ML ACETONE 2/WK FOR 21 WK BEGINNING 1 WK POST CARCINOGEN (STUDY DURATION: 21 WK), Route [Carcinogen]: DERMAL, Route [Promoter]: DERMAL, Species: MOUSE, Strain/Sex: SENCAR/FEMALE",skin: papilloma
CCCCCCCC/C=C\CCCCCCCC(=O)O,outcome,[1],integumentary system (skin)
CC(=O)OCC(COC(C)=O)OC(C)=O,outcome,"Carcinogen: 7,12-Dimethylbenz(a)anthracene, 57-97-6, Doses [Carcinogen]: 100 ug in 100 ul acetone once at 6 wk of age, Doses [Promoter]: 0, 85 mg, daily for 5 d/wk beginning 1 wk after carcinogen administration for 35 wk, study duration 36 wk, Route [Carcinogen]: Dermal, Route [Promoter]: Dermal, Species: Mouse, Strain/Sex: ICR/Female",skin: none
same,outcome,"Carcinogen: 7,12-Dimethylbenz(a)anthracene, 57-97-6, Doses [Carcinogen]: 100 ug in 100 ul acetone once at 6 wk of age, Doses [Promoter]: 0, 85 mg, twice daily for 5 d/wk beginning 1 wk after carcinogen administration for 35 wk, study duration 36 wk, Route [Carcinogen]: Dermal, Route [Promoter]: Dermal, Species: Mouse, Strain/Sex: ICR/Female",skin: none
